Source: patent US20200138827A1, “SMALL MOLECULE MODULATORS OF HUMAN STING” (Curadev Pharma Limited, priority 2017, published 2020)

Each compound was assayed against T1, WT/R232 STING protein (Homo sapiens, UniProt Q86WV6, H232R) (assay: Luciferase reporter assay in HEK293T-hSTING-Luciferase cells, WT/R232). Details: 20 hr stimulation, read-out: R232 Activity (EC50 range).
T1 construct: host or cells: HEK293T
Format: cell-based
Method in brief: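 Clonal HEK293T cells stably expressing human STING R232 plus an ISRE/ISG54-driven luciferase reporter, 5×10^5 per well, stimulated with compounds for 20 h. Secreted luciferase in supernatant measured by luminescence; […].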

T1 sequence (Q86WV6 whole entry H232R): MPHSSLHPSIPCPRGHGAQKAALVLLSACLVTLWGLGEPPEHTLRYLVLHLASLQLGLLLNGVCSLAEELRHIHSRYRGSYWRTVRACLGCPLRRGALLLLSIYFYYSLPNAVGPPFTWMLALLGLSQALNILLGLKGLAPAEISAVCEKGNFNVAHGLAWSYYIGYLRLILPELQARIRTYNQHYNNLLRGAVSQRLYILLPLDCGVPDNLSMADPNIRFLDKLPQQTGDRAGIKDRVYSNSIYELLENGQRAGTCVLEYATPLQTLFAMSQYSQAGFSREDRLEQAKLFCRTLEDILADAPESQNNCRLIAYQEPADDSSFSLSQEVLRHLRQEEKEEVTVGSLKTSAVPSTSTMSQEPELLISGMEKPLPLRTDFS

SMILES	EC50 [µM]
O=C(NC(Cc1ccccc1)c1ccccc1)c1ccc2c(c1)N(Cc1ccccc1)C(=O)CS2 (centres unmarked) [Example 79, 4-benzyl-N-(1,2-diphenylethyl)-3-oxo-3,4-dihydro-2H-benzo[b-1,4]thiazine-6-carboxamide]	> 10
CC1Sc2ncc(C(=O)NCc3ccn(C)n3)cc2N(Cc2cc(F)cc(F)c2)C1=O (centres unmarked) [Example 215, 1-(3,5-difluorobenzyl)-3-methyl-N-((1-methyl-1H-pyrazol-3-yl)methyl)-2-oxo-2,3-dihydro-1H-pyrido[2,3-b][1,4]thiazine-7-carboxamide]	> 10
O=C(NCc1ccco1)c1ccc2c(c1)N(CCc1ccccc1Cl)C(=O)CS2 [Example 89, 4-(2-chlorophenethyl)-N-(furan-2-ylmethyl)-3-oxo-3,4-dihydro-2H-benzo[b-1,4]thiazine-6-carboxamide]	> 10
CC1Sc2ncc(C(=O)NCc3cccnn3)cc2N(Cc2cc(F)cc(F)c2)C1=O (centres unmarked) [Example 214, 1-(3,5-difluorobenzyl)-3-methyl-2-oxo-N-(pyridazin-3-ylmethyl)-2,3-dihydro-1H-pyrido [2,3-b][1,4] thiazine-7-carboxamide]	> 10
O=C(NCC1CCCO1)c1ccc2c(c1)N(Cc1c(F)cccc1Cl)C(=O)CS2 (centres unmarked) [Example 130, 4-(2-chloro-6-fluorobenzyl)-3-oxo-N-((tetrahydrofuran-2-yl)methyl)-3,4-dihydro-2H-benzo[b-1,4]thiazine-6-carboxamide]	> 10
Cc1cnc(CNC(=O)c2ccc3c(c2)N(Cc2ccccc2)C(=O)CS3)o1 [Example 63, 4-benzyl-N-((5-methyloxazol-2-yl)methyl)-3-oxo-3,4-dihydro-2H-benzo[b-1,4]thiazine-6-carboxamide]	> 10
NC(=O)CC1Sc2ccc(C(=O)NCc3ccc(F)cc3F)cc2N(Cc2cc(F)cc(F)c2)C1=O (centres unmarked) [Example 176, 2-(2-amino-2-oxoethyl)-N-(2,4-difluorobenzyl)-4-(3,5-difluorobenzyl)-3-oxo-3,4-dihydro-2H-benzo[b] [1,4]thiazine-6-carboxamide]	> 10
O=C(NCc1ccco1)c1ccc2c(c1)N(Cc1c(F)cccc1Cl)C(=O)CC2 [Example 268, 1-(2-chloro-6-fluorobenzyl)-N-(furan-2-ylmethyl)-2-oxo-1,2,3,4-tetrahydroquinoline-7-carboxamide]	> 10
O=C(CN1C(=O)CSc2ccc(C(=O)NCc3ccco3)cc21)Nc1ccccc1 [Example 5, N-(furan-2-ylmethyl)-3-oxo-4-(2-oxo-2-(phenylamino)ethyl)-3,4-dihydro-2H-benzo[b-1,4]thiazine-6-carboxamide]	> 10
Nc1ccc(CNC(=O)c2ccc3c(c2)N(Cc2ccccc2)C(=O)CS3)cn1 [Example 52, N-((6-aminopyridin-3-yl)methyl)-4-benzyl-3-oxo-3,4-dihydro-2H-benzo[b-1,4]thiazine-6-carboxamide]	> 10
CC1Sc2ccc(C(=O)NCCc3c(F)cc(F)cc3F)nc2N(Cc2cc(F)cc(F)c2)C1=O (centres unmarked) [Example 174, 4-(3,5-difluorobenzyl)-2-methyl-3-oxo-N-(2,4,6-trifluoro-phenethyl)-3,4-dihydro-2H-pyrido[3,2-b][1,4]thiazine-6-carboxamide]	> 10
O=C(NCc1ccco1)c1ccc2c(c1)N(Cc1cccc(C(F)(F)F)c1)C(=O)CS2 [Example 97, N-(furan-2-ylmethyl)-3-oxo-4-(3-(trifluoromethyl)benzyl)-3,4-dihydro-2H-benzo[b-1,4]thiazine-6-carboxamide]	> 10
O=C(NCC1CCN(c2ccccc2)CC1)c1ccc2c(c1)N(Cc1ccccc1F)C(=O)CS2 [Example 45, 4-(2-fluorobenzyl)-3-oxo-N-((1-phenyl-piperidin-4-yl)methyl)-3,4-dihydro-2H-benzo[b][1,4] thiazine-6-carboxamide]	> 10
O=C(NCc1ccccc1Cl)c1ccc2c(c1)N(Cc1ccccc1Cl)C(=O)CS2 [Example 123, N,4-bis(2-chlorobenzyl)-3-oxo-3,4-dihydro-2H-benzo[b-1,4]thiazine-6-carboxamide]	> 10
Cc1cnc(CNC(=O)c2cnc3c(c2)N(Cc2cc(F)cc(F)c2)C(=O)C(C)S3)o1 (centres unmarked) [Example 213, 1-(3,5-difluorobenzyl)-3-methyl-N-((5-methyloxazol-2-yl)methyl)-2-oxo-2,3-dihydro-1H-pyrido[2,3-b][1,4]thiazine-7-carboxamide]	> 10
O=C(NCc1ncco1)c1ccc2c(c1)N(Cc1ccccc1)C(=O)CS2 [Example 59, 4-benzyl-N-(oxazol-2-ylmethyl)-3-oxo-3,4-dihydro-2H-benzo[b-1,4]thiazine-6-carboxamide]	> 10
O=C(NCc1cc2ccccc2o1)c1cnc2c(c1)N(Cc1cc(F)cc(F)c1)C(=O)CC2 [Example 278, N-(benzofuran-2-ylmethyl)-5-(3,5-difluorobenzyl)-6-oxo-5,6,7,8-tetrahydro-1,5-naphthyridine-3-carboxamide]	> 10
O=C(NCc1cccc(Cl)c1Cl)c1ccc2c(c1)N(Cc1ccccc1)C(=O)CS2 [Example 55, 4-benzyl-N-(2,3-dichlorobenzyl)-3-oxo-3,4-dihydro-2H-benzo[b-1,4]thiazine-6-carboxamide]	> 10
C[C@H](NC(=O)c1ccc2c(c1)N(Cc1ccccc1F)C(=O)CS2)C1CCCCC1 [Example 18, (S)-N-(1-cyclohexyl-ethyl)-4-(2-fluorobenzyl)-3-oxo-3,4-dihydro-2H-benzo[b-1,4]thiazine-6-carboxamide]	> 10
O=C(NCc1ccccn1)c1ccc2c(c1)N(Cc1c(F)cccc1Cl)C(=O)CS2 [Example 108, 4-(2-chloro-6-fluorobenzyl)-3-oxo-N-(pyridin-2-ylmethyl)-3,4-dihydro-2H-benzo[b-1,4]thiazine-6-carboxamide]	> 10
CC(NC(=O)c1ccc2c(c1)N(Cc1ccccc1)C(=O)CS2)c1ccco1 (centres unmarked) [Example 68, 4-benzyl-N-(1-(furan-2-yl)ethyl)-3-oxo-3,4-dihydro-2H-benzo[b-1,4]thiazine-6-carboxamide]	> 10
O=C(NCc1ccc(C(F)(F)F)cc1)c1ccc2c(c1)N(Cc1ccccc1)C(=O)CS2 [Example 72, 4-benzyl-3-oxo-N-(4-(trifluoromethyl)benzyl)-3,4-dihydro-2H-benzo[b-1,4]thiazine-6-carboxamide]	> 10
O=C(NCc1ccco1)c1ccc2c(c1)N(Cc1ccccc1)CC[S+]2[O-] (centres unmarked) [Example 251, 4-Benzyl-N-(furan-2-ylmethyl)-3,4-dihydro-2H-benzo[b-1,4]thiazine-6-carboxamide 1-oxide]	> 10

Results, then the compound that gave them:

EC50 [µM]	SMILES
> 10	CC1Sc2ncc(C(=O)NCc3cc4ccccc4o3)cc2N(Cc2cc(F)cc(F)c2)C1=O (centres unmarked) [Example 208, N-(benzofuran-2-ylmethyl)-1-(3,5-difluorobenzyl)-3-methyl-2-oxo-2,3-dihydro-1H-pyrido[2,3-b][1,4] thiazine-7-carboxamide]
> 10	O=C(NCC1CCCC1)c1ccc2c(c1)N(Cc1c(F)cccc1Cl)C(=O)CS2 [Example 35, 4-(2-chloro-6-fluorobenzyl)-N-(cyclopentyl-methyl)-3-oxo-3,4-dihydro-2H-benzo[b][1,4] thiazine-6-carboxamide]
1 to 10	Cc1cccc(C)c1CN1C(=O)CSc2ccc(C(=O)NCc3ccco3)cc21 [Example 13, 4-(2,6-dimethyl-benzyl)-N-(furan-2-ylmethyl)-3-oxo-3,4-dihydro-2H-benzo[b-1,4]thiazine-6-carboxamide]
1 to 10	O=C(NCc1c(F)cccc1Cl)c1ccc2c(c1)N(Cc1c(F)cccc1Cl)C(=O)CS2 [Example 21, N,4-bis(2-chloro-6-fluorobenzyl)-3-oxo-3,4-dihydro-2H-benzo[b-1,4]thiazine-carboxamide]
1 to 10	O=C(NCc1ccc(F)cc1F)c1cnc2c(c1)N(Cc1cc(F)cc(F)c1)C(=O)CC2 [Example 277, N-(2,4-difluorobenzyl)-5-(3,5-difluorobenzyl)-6-oxo-5,6,7,8-tetrahydro-1,5-naphthyridine-3-carboxamide]
1 to 10	O=C(NCc1ccco1)c1ccc2c(c1)N(Cc1ccc(Cl)cc1)C(=O)CS2 [Example 119, 4-(4-chlorobenzyl)-N-(furan-2-ylmethyl)-3-oxo-3,4-dihydro-2H-benzo[b-1,4]thiazine-6-carboxamide]
1 to 10	CC1Sc2ccc(C(=O)NCc3ccco3)cc2N(Cc2ccccc2)C1=O (centres unmarked) [Example 134, 4-benzyl-N-(furan-2-ylmethyl)-2-methyl-3-oxo-3,4-dihydro-2H-benzo[b-1,4]thiazine-6-carboxamide]
1 to 10	Cc1ccc(CNC(=O)c2ccc3c(n2)N(Cc2cccc(C(N)=O)c2)C(=O)C(C)S3)o1 (centres unmarked) [Example 205, 4-(3-carbamoyl-benzyl)-2-methyl-N-((5-methylfuran-2-yl)methyl)-3-oxo-3,4-dihydro-2H-pyrido[3,2-b][1,4]thiazine-6-carboxamide]
1 to 10	Cc1cccc(CN2C(=O)CSc3ccc(C(=O)NCc4ccco4)cc32)c1C [Example 12, 4-(2,3-dimethyl-benzyl)-N-(furan-2-ylmethyl)-3-oxo-3,4-dihydro-2H-benzo[b-1,4]thiazine-6-caroxamide]
1 to 10	O=C(NCc1cccc(F)c1)c1ccc2c(c1)N(Cc1c(F)cccc1Cl)C(=O)CS2 [Example 38, 4-(2-chloro-6-fluorobenzyl)-N-(3-fluorobenzyl)-3-oxo-3,4-dihydro-2H-benzo[b-1,4]thiazine-6-carboxamide]
1 to 10	O=C(NCc1ccc2ccccc2c1)c1ccc2c(c1)N(Cc1ccccc1)C(=O)CS2 [Example 74, 4-benzyl-N-(naphthalen-2-ylmethyl)-3-oxo-3,4-dihydro-2H-benzo[b-1,4]thiazine-6-carboxamide]
< 1	O=C(NCc1c(F)cc(F)cc1F)c1ccc2c(c1)N(Cc1c(F)cc(O)cc1F)C(=O)CS2 [Example 115, 4-(2,6-difluoro-4-hydroxybenzyl)-3-oxo-N-(2,4,6-trifluorobenzyl)-3,4-dihydro-2H-benzo[b][1,4] thiazine-6-carboxamide]
